Consider five molecules from patent US11992473B2, “Compositions and methods for diagnosis and treatment of conditions related to the quality of aging and longevity” (Epitracker, Inc., priority 2018, dated 2024).

Data set [1] concerns Venular endothelial cells, peripheral blood mononuclear cells. The data set can be described thus: BioMAP Diversity PLUS SAg system (T cell stimulation, Th1 type chronic inflammation). Type of data set: cell-based, human. Particulars: for Significant log10 reduction compared to nontreated controls: T cell proliferation: SAg system; for T cell proliferation: human cell system mimicking T-cell driven chronic inflammation and autoimmune diseases, concentrations ranging from 740 nm to 6.7 μM (FIG. 2). Here is the method:
(§1) This study examined activities of small molecules discovered in dolphin serum that had protective profiles against diseases of aging which can impact quality of life and longevity. These molecules were tested across 12 human primary cell-based systems as part of DiscoverX's BioMAP Diversity Plus program. These systems are designed to model complex human tissue and disease biology of the vasculature, skin, lung, and inflammatory tissues. Quantitative measurements of biomarker activities across this broad panel, along with comparative analysis of biological activities of known bioactive agents were used to predict and compare the efficacy and function of the four compounds. Compounds were tested at four concentrations (740 nm and 2.2, 6.7 and 20 μM).
(§2) BioMAP panels consist of human primary cell-based systems designed to model different aspects of the human body in an in vitro format. The 12 systems in the Diversity PLUS panel allow test agent characterization in an unbiased way across a broad set of systems modeling various human disease states. BioMAP systems are constructed with one or more primary cell types from healthy human donors, with stimuli (such as cytokines or growth factors) added to capture relevant signaling networks that naturally occur in human tissue or pathological conditions. Vascular biology is modeled in both a Th1 (3C system) and a Th2 (4H system) inflammatory environment, as well as in a Th1 inflammatory state specific to arterial smooth muscle cells (CASM3C system). Additional systems recapitulate aspects of the systemic immune response including monocyte-driven Th1 inflammation (LPS system) or T cell stimulation (SAg system), chronic Th1 inflammation driven by macrophage activation (lMphg system) and the T cell-dependent activation of B cells that occurs in germinal centers (BT system). The BE3C system (Th1) and the BF4T system (Th2) represent airway inflammation of the lung, while the MyoF system models myofibroblast-lung tissue remodeling. Lastly, skin biology is addressed in the KF3CT system modeling Th1 cutaneous inflammation and the HDF3CGF system modeling wound healing.
(§3) Each test agent generates a signature BioMAP profile that is created from the changes in protein biomarker readouts within individual system environments. Biomarker readouts (7-17 per system) are selected for therapeutic and biological relevance, are predictive for disease outcomes or specific drug effects and are validated using agents with known mechanism of action (MoA). Each readout is measured quantitatively by immune-based methods that detect protein (e.g., ELISA) or functional assays that measure proliferation and viability. BioMAP readouts are diverse and include cell surface receptors, cytokines, chemokines, matrix molecules and enzymes. In total, the Diversity PLUS panel contains 148 biomarker readouts that capture biological changes that occur within the physiological context of the particular BioMAP system. Specific BioMAP activities have been correlated to in vivo biology, and multiparameter BioMAP profiles have been used to distinguish compounds based on MoA and target selectivity across diverse physiological systems.
(§4) The Diversity PLUS panel allows test agent characterization in an unbiased way across a broad set of systems modeling various human disease states. These systems are designed to model complex human tissue and disease biology of the vasculature, skin, lung, and inflammatory tissues. Quantitative measurements of 148 biomarker activities across this broad panel, along with comparative analysis of biological activities from known bioactive agents, were used to predict and compare the efficacy and function of each selected compound at four concentrations (740 nm and 2.2, 6.7 and 20 μM). […]

Data set [2] deals with Peripheral blood mononuclear cells, B cells. The data set can be described thus: BioMAP Diversity PLUS BT system (T cell dependent B cell activation). Format: cell-based, human. Particulars: BT system. The method, then: as §1, §2
(§5) Each test agent generates a signature BioMAP profile that is created from the changes in protein biomarker readouts within individual system environments. Biomarker readouts (7-17 per system) are selected for therapeutic and biological relevance, are predictive for disease outcomes or specific drug effects and are validated using agents with known mechanism of action (MoA). Each readout is measured quantitatively by immune-based methods that detect protein (e.g., ELISA) or functional assays that measure proliferation and viability. BioMAP readouts are diverse and include cell surface receptors, cytokines, chemokines, matrix molecules and enzymes.
(§6) The Diversity PLUS panel allows test agent characterization in an unbiased way across a broad set of systems modeling various human disease states. These systems are designed to model complex human tissue and disease biology of the vasculature, skin, lung, and inflammatory tissues.
(§7) BioMAP systems are constructed with one or more primary cell types from healthy human donors, with stimuli (such as cytokines or growth factors) added to capture relevant signaling networks that naturally occur in human tissue or pathological conditions. Vascular biology is modeled in both a Th1 (3C system) and a Th2 (4H system) inflammatory environment, as well as in a Th1 inflammatory state specific to arterial smooth muscle cells (CASM3C system). Additional systems recapitulate aspects of the systemic immune response including monocyte-driven Th1 inflammation (LPS system) or T cell stimulation (SAg system), chronic Th1 inflammation driven by macrophage activation (lMphg system) and the T cell-dependent activation of B cells that occurs in germinal centers (BT system).

For the next data set, the system named is Dermal fibroblasts. The experiment in a line: BioMAP Diversity PLUS HDF3CGF system (wound healing and matrix/tissue remodeling). Type of data set: cell-based, human. The following applies: for decorin: fibrosis and chronic inflammation (FIG. 7). The method, then: as §1, §2, §5, §6, §7
For data set [3] the following is noted: white powder; room temperature; cited from earlier work.
The subject of another data set is Lung fibroblasts. The experiment in a line: BioMAP Diversity PLUS MyoF system (myofibroblast differentiation and tissue remodeling). Type of data set: cell-based, human. The method, then:
as §1, §2, §3, §4

Data set [4] has as its system Venular endothelial cells, peripheral blood mononuclear cells. The experiment in a line: BioMAP Diversity PLUS LPS system (Th1 type chronic inflammation, monocyte activation). Type of data set: cell-based, human. The following applies: for Significant log10 reduction compared to nontreated controls: Secreted prostaglandin E2 (PGE2): LPS system; for secretion of prostaglandin E2 (PGE2): human cell system mimicking T-cell and monocyte driven chronic inflammation and cardiovascular diseases (FIG. 4). The method, then:
as §1, §2, §5, §6, §7

Data set [5] concerns Coronary artery smooth muscle cells. The data set can be described thus: BioMAP Diversity PLUS CASM3C system (Th1 type vascular inflammation). Format: cell-based, human. Here is the method:
as §1, §2, §5, §6, §7

Data set [6] relates to Bronchial epithelial cells, dermal fibroblasts. The experiment in a line: BioMAP Diversity PLUS BF4T system (Th2 type lung inflammation). Format: cell-based, human. The method, then:
as §1, §2, §3, §4

For data set [7], the system named is Macrophages, venular endothelial cells. The experiment in a line: BioMAP Diversity PLUS lMphg system (Th1 type chronic inflammation, macrophage activation). Type of data set: cell-based, human. The following applies: /Mphg system. The method, then: as §1, §2, §3, §4
[8] abbreviates: human cell system mimicking wound healing, remodeling.

Consider `N[C@@H](CC(O)C(=O)O)C(=O)O` (stereo partly shown) [4-hydroxyglutamate], for which the “Significant log10 reduction compared to nontreated controls: T cell proliferation” value is reported as −0.08 log10 in data set [1] (0.7 μM), −0.09 log10 in data set [1] (2.2 μM) and −0.18 log10 in data set [1] (6.7 μM). For the same molecule, the T cell proliferation entry in data set [1] is reported as “decreased”. Further, the “Significant log10 reduction compared to nontreated controls: Secreted interleukin 17F (IL-17F)” value in data set [2] (0.7 μM) was −0.16 log10. Further, the decorin result with Dermal fibroblasts (setting [8]) is on record as “inhibitory activity”. In addition, in data set [3], the “stability of the pure or purified metabolite” value is “stable at room temperature”.

With `CS(=O)(=O)CC[C@H](N)C(=O)O` [Methionine sulfone], the “Significant log10 reduction compared to nontreated controls: Decorin” value in the data set on Lung fibroblasts (6.7 μM) was −0.07 log10; in the data set on Lung fibroblasts (20.0 μM), −0.11 log10. Moreover, the T cell proliferation entry in data set [1] is on record as “decreased”. Also, the “Significant log10 reduction compared to nontreated controls: Secreted prostaglandin E2 (PGE2)” value (“Significant log10 reduction … (PGE2)” below) in data set [4] (0.7 μM) is on record as −0.12 log10; in data set [4] (2.2 μM), −0.08 log10. For the same molecule, in data set [4], the “secretion of prostaglandin E2 (PGE2)” value is given as “lowered”. Also, the “Significant log10 reduction compared to nontreated controls: Vascular cell adhesion molecule 1 (VCAM-1)” value (from here on “Significant log10 reduction … (VCAM-1)”) in data set [5] (CASM3C system, 0.7 μM) is listed as −0.10 log10; in [5] (CASM3C system, 2.2 μM), −0.09 log10. Moreover, the “Significant log10 reduction compared to nontreated controls: Monocyte chemoattractant protein 1 (MCP-1)” value in the data set on Dermal fibroblasts (HDF3CGF system, 6.7 μM) was −0.24 log10. Besides, the decorin entry in the data set on Dermal fibroblasts (setting [8]) is on record as “inhibitory activity”.

Regarding `CCCCCCC=CCCCCCCCCC(=O)O` [10-heptadecanoate], the “Significant log10 reduction compared to nontreated controls: Serum amyloid A” value in data set [5] (CASM3C system, 2.2 μM) was −0.13 log10. Besides, the “Significant log10 reduction compared to nontreated controls: Macrophage colony-stimulating factor (M-CSF)” value with Dermal fibroblasts (HDF3CGF system, 6.7 μM) was −0.1 log10. In addition, the “Significant log10 reduction … (VCAM-1)” value in the data set on Dermal fibroblasts (HDF3CGF system, 6.7 μM) is listed as −0.17 log10. Further, the results for the “Significant log10 reduction compared to nontreated controls: Eotaxin 3 (CCL26)” value in data set [6] (2.2 μM), in data set [6] (6.7 μM) and in data set [6] (20.0 μM) were −0.10 log10, −0.13 log10 and −0.31 log10, respectively.

For the molecule `O=C(O)c1cc(O)c2cccc(O)c2n1` [Xanthurenate], in data set [2] (20.0 μM), the “Significant log10 reduction compared to nontreated controls: Secreted interleukin 6 (IL-6)” value is listed as −0.13 log10 and the “Significant log10 reduction compared to nontreated controls: Secreted tumor necrosis factor alpha (TNFα)” value was −0.19 log10. Also, the “Significant log10 reduction … (PGE2)” value in [4] (6.7 μM) is −0.16 log10. The “Significant log10 reduction … (PGE2)” value in [4] (20.0 μM) is −0.09 log10. Further, in [4], the “secretion of prostaglandin E2 (PGE2)” value is “lowered”. Also, the IL-6 entry in data set [5] (human cell system mimicking cardiovascular inflammation (FIG. 6)) was “lowered”. Also, in the data set on Dermal fibroblasts (human cell system mimicking wound healing, remodeling, fibrosis and chronic inflammation (FIG. 8)), the “interleukin 8 (IL-8)” value is on record as “inhibitory activity”.

As for `NC(=O)CC[C@H](NC(=O)CC[C@H](N)C(=O)O)C(=O)O` [Gamma-glutamylglutamine], the “Significant log10 reduction compared to nontreated controls: Monocyte chemoattractant protein 1 (MCP-1)” value in data set [7] (0.7 μM) was −0.18 log10; in data set [7] (2.2 μM) it was −0.10 log10. Besides, the “Significant log10 reduction compared to nontreated controls: Interleukin 1 alpha (IL-1α)” value in data set [7] (20.0 μM) is recorded as −0.16 log10. Further, in data set [2] (20.0 μM), the “Significant log10 reduction compared to nontreated controls: Secreted interleukin 6 (IL-6)” value was −0.13 log10. Moreover, in data set [5] (CASM3C system (as aligned in the table), 20.0 μM), the “Significant log10 reduction … (VCAM-1)” value is listed as −0.15 log10. In addition, the “Significant log10 reduction compared to nontreated controls: Serum amyloid A” value in data set [5] (CASM3C system, 6.7 μM) was −0.11 log10. Moreover, the “Significant log10 reduction compared to nontreated controls: Collagen III” value in the data set with Dermal fibroblasts (HDF3CGF system, 20.0 μM) is reported as −0.10 log10.
